Activity calls are given as the source filed them.
Tests used:
Type in all cases: functional
[1] = molecular target: Dual specificity tyrosine-phosphorylation-regulated kinase 1B (Homo sapiens, UniProt Q9Y463); experiment: Navigating the Kinome. Panel member name: DYRK1B
[2] = molecular target: Cyclin-dependent kinase 5 (Homo sapiens, UniProt Q00535);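 note: CDK5 measured as one member of a kinase profiling panel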
[3] = molecular target: Leucine-rich repeat serine/threonine-protein kinase 2 (Homo sapiens, UniProt Q5S007);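 note: value from a broad kinome-wide panel profiling study in which LRRK2 was one of the kinases tested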
Chain of Leucine-rich repeat serine/threonine-protein kinase 2 (Q5S007 whole entry): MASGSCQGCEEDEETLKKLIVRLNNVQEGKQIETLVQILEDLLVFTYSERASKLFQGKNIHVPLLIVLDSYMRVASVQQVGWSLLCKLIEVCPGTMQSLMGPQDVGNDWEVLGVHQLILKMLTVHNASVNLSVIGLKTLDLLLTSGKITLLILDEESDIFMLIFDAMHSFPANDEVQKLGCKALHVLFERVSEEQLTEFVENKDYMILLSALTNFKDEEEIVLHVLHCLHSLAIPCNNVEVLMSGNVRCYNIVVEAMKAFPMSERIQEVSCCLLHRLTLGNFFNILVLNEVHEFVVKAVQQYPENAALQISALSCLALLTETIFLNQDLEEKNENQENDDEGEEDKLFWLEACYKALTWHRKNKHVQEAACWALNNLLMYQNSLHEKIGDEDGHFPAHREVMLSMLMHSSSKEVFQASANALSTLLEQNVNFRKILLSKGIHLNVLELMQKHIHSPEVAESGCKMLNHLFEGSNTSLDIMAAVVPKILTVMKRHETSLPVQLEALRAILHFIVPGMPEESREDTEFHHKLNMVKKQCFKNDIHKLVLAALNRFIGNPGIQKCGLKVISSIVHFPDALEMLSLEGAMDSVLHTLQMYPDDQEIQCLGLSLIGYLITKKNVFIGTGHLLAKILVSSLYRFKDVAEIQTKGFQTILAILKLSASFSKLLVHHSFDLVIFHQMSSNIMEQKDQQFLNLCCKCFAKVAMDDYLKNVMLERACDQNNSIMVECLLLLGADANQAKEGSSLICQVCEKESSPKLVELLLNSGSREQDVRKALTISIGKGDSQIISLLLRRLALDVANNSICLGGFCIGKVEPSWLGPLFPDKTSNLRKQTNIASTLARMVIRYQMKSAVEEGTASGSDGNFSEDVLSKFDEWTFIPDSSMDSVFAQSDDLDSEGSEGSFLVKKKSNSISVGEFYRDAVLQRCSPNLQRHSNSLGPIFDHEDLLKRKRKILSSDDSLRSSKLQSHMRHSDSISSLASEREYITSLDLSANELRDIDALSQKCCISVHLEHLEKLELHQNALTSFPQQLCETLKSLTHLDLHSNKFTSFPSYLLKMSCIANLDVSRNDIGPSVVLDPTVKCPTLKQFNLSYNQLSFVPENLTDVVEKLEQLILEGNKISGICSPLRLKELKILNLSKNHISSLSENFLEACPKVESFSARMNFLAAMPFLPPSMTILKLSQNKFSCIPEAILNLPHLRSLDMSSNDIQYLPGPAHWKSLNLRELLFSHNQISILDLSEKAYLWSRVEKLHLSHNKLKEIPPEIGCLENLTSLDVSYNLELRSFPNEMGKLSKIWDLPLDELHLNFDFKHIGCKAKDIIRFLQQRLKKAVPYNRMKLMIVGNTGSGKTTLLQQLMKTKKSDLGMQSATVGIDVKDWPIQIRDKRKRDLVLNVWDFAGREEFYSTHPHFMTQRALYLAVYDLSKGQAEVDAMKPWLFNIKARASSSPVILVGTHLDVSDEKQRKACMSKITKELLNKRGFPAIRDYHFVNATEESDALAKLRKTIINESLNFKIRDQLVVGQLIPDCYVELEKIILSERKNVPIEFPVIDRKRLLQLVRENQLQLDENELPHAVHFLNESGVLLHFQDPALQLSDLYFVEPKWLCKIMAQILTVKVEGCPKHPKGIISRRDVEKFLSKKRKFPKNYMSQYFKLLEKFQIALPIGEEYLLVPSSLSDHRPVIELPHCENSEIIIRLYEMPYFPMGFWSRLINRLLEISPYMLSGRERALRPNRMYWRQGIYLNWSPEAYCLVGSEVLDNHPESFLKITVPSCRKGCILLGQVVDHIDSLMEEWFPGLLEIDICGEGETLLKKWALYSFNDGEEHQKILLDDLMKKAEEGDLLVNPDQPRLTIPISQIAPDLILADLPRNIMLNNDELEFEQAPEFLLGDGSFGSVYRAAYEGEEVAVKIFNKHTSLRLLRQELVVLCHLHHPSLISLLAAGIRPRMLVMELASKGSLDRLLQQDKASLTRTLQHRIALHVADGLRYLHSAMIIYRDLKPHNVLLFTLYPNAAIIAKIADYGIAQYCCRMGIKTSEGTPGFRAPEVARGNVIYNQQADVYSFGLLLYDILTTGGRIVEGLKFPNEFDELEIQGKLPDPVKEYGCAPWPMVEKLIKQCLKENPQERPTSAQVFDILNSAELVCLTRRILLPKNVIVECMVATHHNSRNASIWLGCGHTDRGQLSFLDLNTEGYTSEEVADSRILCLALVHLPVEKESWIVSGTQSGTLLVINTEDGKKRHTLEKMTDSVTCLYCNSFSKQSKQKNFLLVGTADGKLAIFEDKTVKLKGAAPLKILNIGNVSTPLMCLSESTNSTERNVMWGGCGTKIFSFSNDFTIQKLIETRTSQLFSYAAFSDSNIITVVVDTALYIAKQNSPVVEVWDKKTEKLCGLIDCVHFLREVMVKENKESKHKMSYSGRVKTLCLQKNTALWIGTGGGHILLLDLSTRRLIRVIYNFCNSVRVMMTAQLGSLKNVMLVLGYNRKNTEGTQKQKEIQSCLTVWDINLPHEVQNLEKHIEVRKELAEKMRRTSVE

[4] = molecular target: T1, Serine/threonine-protein kinase Chk1 (Homo sapiens, UniProt O14757);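 note: measured as one member of a kinome-wide kinase profiling panel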
T1 sequence (O14757 whole entry): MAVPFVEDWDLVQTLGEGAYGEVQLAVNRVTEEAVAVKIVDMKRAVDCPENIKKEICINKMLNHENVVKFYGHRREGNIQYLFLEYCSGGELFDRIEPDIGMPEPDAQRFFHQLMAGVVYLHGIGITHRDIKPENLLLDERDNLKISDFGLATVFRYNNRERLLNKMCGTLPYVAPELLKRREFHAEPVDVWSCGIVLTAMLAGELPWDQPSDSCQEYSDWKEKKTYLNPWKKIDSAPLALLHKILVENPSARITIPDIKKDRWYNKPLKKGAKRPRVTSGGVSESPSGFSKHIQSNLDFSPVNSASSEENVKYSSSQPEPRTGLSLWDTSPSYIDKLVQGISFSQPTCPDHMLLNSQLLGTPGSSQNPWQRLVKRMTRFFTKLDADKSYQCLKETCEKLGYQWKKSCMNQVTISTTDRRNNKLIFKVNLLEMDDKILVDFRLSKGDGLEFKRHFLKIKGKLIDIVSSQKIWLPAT

[5] = molecular target: Platelet-derived growth factor receptor alpha (Homo sapiens, UniProt P16234); experiment: Navigating the Kinome. Panel member name: PDGFRA
[6] = molecular target: Dual specificity tyrosine-phosphorylation-regulated kinase 1A (Homo sapiens, UniProt Q13627);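 note: measured against DYRK1A as one member of a broad kinome profiling panel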
[7] = molecular target: Dual specificity protein kinase CLK4 (Homo sapiens, UniProt Q9HAZ1)
Chain of Dual specificity protein kinase CLK4 (Q9HAZ1 whole entry): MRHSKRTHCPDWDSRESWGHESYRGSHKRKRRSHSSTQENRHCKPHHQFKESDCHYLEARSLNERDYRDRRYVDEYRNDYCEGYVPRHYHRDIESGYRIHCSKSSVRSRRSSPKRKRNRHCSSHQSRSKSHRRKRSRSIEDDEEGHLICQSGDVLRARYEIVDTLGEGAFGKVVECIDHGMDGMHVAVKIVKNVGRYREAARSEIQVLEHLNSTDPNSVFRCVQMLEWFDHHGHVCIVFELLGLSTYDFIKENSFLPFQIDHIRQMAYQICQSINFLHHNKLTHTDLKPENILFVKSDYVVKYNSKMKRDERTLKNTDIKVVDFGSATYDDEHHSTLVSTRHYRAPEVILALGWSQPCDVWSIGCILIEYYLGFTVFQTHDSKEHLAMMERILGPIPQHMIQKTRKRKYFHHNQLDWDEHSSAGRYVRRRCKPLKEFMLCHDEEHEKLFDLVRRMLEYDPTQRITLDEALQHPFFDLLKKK

[8] = molecular target: Serine/threonine-protein kinase Nek2 (Homo sapiens, UniProt P51955)
Chain of Serine/threonine-protein kinase Nek2 (P51955 whole entry): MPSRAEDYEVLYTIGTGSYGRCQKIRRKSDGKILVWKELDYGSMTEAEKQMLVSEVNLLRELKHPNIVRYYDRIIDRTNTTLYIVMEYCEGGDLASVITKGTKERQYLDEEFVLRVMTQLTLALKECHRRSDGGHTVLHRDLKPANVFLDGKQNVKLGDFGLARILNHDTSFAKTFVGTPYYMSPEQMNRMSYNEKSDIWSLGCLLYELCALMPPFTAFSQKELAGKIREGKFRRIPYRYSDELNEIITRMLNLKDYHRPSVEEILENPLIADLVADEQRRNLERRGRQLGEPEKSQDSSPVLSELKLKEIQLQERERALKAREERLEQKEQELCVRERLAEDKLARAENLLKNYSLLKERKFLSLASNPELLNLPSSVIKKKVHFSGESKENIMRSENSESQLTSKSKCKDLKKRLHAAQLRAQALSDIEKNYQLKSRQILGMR

Chain of Dual specificity tyrosine-phosphorylation-regulated kinase 1B (Q9Y463 whole entry): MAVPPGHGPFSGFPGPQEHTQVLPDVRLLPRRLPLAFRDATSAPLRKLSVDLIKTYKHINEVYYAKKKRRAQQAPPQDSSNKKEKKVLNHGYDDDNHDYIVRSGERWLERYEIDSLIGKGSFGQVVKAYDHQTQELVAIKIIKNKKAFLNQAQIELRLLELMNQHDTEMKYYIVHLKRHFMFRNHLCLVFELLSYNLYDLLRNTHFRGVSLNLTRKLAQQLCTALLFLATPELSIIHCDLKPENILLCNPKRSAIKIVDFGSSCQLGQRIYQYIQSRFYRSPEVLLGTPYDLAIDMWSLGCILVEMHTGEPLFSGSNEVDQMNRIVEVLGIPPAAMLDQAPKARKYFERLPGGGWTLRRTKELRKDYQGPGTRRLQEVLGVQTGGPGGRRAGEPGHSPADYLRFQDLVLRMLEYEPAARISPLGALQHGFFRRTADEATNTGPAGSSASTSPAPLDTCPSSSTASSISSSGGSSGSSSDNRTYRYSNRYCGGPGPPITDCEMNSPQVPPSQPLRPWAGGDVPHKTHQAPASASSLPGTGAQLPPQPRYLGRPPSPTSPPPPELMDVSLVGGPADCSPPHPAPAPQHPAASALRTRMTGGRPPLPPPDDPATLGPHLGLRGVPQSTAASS
Chain of Cyclin-dependent kinase 5 (Q00535 whole entry): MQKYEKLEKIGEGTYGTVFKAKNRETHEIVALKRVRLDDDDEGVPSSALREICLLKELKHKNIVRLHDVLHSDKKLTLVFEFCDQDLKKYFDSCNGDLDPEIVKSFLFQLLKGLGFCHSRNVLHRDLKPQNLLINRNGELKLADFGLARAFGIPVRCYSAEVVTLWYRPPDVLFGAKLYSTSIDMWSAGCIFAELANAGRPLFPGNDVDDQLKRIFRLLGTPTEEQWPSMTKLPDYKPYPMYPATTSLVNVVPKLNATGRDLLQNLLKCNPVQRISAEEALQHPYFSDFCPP

Ki [8]	SMILES	Ki [1]	Ki [2]	Ki [3]	Ki [4]	Ki [5]	Ki [6]	Ki [7]
–	Nc1nnc2sc3ccccc3n12	63.1 µM (active)	39.8 µM (active)	79.4 µM (active)	39.8 µM (active)	63.1 µM (active)	39.8 µM (active)	31.6 µM (active)
5.01 µM (active)	Cc1cc2c(c(C#N)c1C)OC1(CCCCC1)C(N)C2=O (centres undefined)	–	–	–	–	–	1.58 µM (active)	–
